Experimental data: US11596611B2, “Hepatitis B antiviral agents” (ENANTA PHARMACEUTICALS, INC., priority 2017, dated 2023)

Tests used:
[1] = Compound toxicity by ATPLite (total ATP levels); assay type: cell-based; details: human, three days after compound addition, 50% reduction of total ATP
Protocol: Methods: HepAD38 cells are maintained as previously reported (Ladner et al, Antimicrob. Agents Chemother. 1997, […], 1715). Briefly, cells are passaged upon attaining confluency in DMEM/F12 media in the presence of 10% FBS, Penn/Strep, 250 μg/mL G418, and 1 ug/ml tetracycline. Novel compounds are screened by first washing cells three times with PBS to remove tetracycline, and plating in 96 well plates at 35,000 cells/well. Compounds dissolved in DMSO are then diluted 1:200 into wells containing cells. Five days after compound addition, material is harvested for analysis. For an extended 8 days analysis, cells are plated and treated as described above, but media and compound are refreshed on d2 and d5 post initial treatment.
Compound toxicity is evaluated by seeding cells at 15,000 cells/well and treating with compound as described above.

[2] = test system: HBV; assay: HepAD38 antiviral assay: reduction of viral product accumulation (virion DNA by qPCR, HBsAg or HBeAg by ELISA); assay type: cell-based, hepatitis B virus; details: Hepatitis B virus, 120 h; HepAD38 cells, five days after compound addition; 50% reduction of viral product vs no drug controls; read-out: HepAD38 EC50
Procedure, shortened: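 Tetracycline-free HepAD38 cells exposed to compound (DMSO stock diluted 1:200) for 5 days, or 8 days with media and compound refreshed on d2 and d5. Virion DNA quantified by qPCR after lysis; HBsAg or HBeAg measured by ELISA on diluted samples.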

SMILES | CC50 at 3 days ([1]; numeric bounds) | EC50 [2] | CC50 at 3 days ([1]; class symbols)
C[C@@H](O)[C@@H](O)[C@@]1(O)C2CC[C@H]1C[C@H](S(=O)(=O)c1cc(C(=O)Nc3cc(F)c(F)c(F)c3)ccc1Cl)C2 (single isomer, unassigned) [Example 136] | > 12.5 µM | < 104 nM | –
COCC1(NC(=O)C[C@]2(O)C3CCC2C[C@@H](S(=O)(=O)c2cc(C(=O)Nc4cc(F)c(F)c(F)c4)ccc2Cl)C3)CC1 [Example 116] | > 3 µM | < 104 nM | –
C/C=C/C(=O)NC[C@]1(O)C2CCC1C[C@@H](S(=O)(=O)c1cc(C(=O)Nc3cc(F)c(F)c(F)c3)ccc1Cl)C2 [Example 12] | > 3 µM | < 104 nM | –
COCCNC(=O)C[C@]1(O)C2CCC1C[C@@H](S(=O)(=O)c1cc(C(=O)Nc3cc(F)c(F)c(F)c3)ccc1Cl)C2 [Example 114] | > 6.25 µM | < 104 nM | –
C[C@@H](O)CNC(=O)C[C@]1(O)C2CCC1C[C@@H](S(=O)(=O)c1cc(C(=O)Nc3ccc(F)c(F)c3)ccc1Cl)C2 [Example 186] | > 12.5 µM | < 104 nM | –
O=C(Nc1ccc(F)c(F)c1)c1ccc(Cl)c(S(=O)(=O)[C@H]2CC3CCC(C2)[C@]3(O)C2CO2)c1 (stereo partly shown) [Example 308] | – | < 104 nM | > 25 µM
O=C(Nc1ccc(F)c(F)c1)c1ccc(Cl)c(S(=O)(=O)[C@@H]2CC3CC[C@@H](C2)[C@@]3(O)C(O)c2nccs2)c1 (stereo partly shown) [Example 302] | – | < 104 nM | > 25 µM
CO[C@H](C)CNC(=O)C[C@]1(O)C2CCC1C[C@@H](S(=O)(=O)c1cc(C(=O)Nc3ccc(F)c(F)c3)ccc1Cl)C2 [Example 189] | > 12.5 µM | < 104 nM | –
O=C(Nc1ccc(F)c(C(F)F)c1)c1ccc(Cl)c(S(=O)(=O)[C@H]2CC3CCC(C2)[C@]3(O)CO)c1 [Example 151] | – | < 104 nM | > 25 µM
C[C@H](O)C(=O)[C@]1(O)C2CCC1C[C@@H](S(=O)(=O)c1cc(C(=O)Nc3ccc(F)c(F)c3)ccc1Cl)C2 [Example 345] | – | < 104 nM | > 25 µM
O=C(Nc1cc(F)c(F)c(F)c1)c1ccc(Cl)c(S(=O)(=O)[C@H]2CC3CCC(C2)[C@]3(O)COC(CCO)CCO)c1 [Example 61] | > 6.25 µM | < 104 nM | –
CC(CO)NC(=O)C[C@]1(O)C2CCC1C[C@@H](S(=O)(=O)c1cc(C(=O)Nc3cc(F)c(F)c(F)c3)ccc1Cl)C2 (stereo partly shown) [Example 55] | – | < 104 nM | > 25 µM
O=C(Nc1ccc(F)c(F)c1)c1ccc(Cl)c(S(=O)(=O)[C@H]2CC3CCC(C2)[C@]3(O)[C@@H](O)c2cccnc2)c1 (single isomer, unassigned) [Example 285a] | – | < 104 nM | > 25 µM
C[C@H](O)COC[C@]1(O)C2CCC1C[C@@H](S(=O)(=O)c1cc(C(=O)Nc3cc(F)c(F)c(F)c3)ccc1Cl)C2 [Example 131] | > 12.5 µM | < 104 nM | –
O=C(C[C@]1(O)C2CCC1C[C@@H](S(=O)(=O)c1cc(C(=O)Nc3cc(F)c(F)c(F)c3)ccc1Cl)C2)N[C@H]1CCOC1 [Example 72] | > 3 µM | < 104 nM | –
CC(C)(O)CNC(=O)C[C@]1(O)C2CCC1C[C@@H](S(=O)(=O)c1cc(C(=O)Nc3ccc(F)c(F)c3)ccc1Cl)C2 [Example 187] | > 12.5 µM | < 104 nM | –
[2H]C1([2H])C2C[C@]([2H])(S(=O)(=O)c3cc(C(=O)Nc4ccc(F)c(F)c4)ccc3Cl)CC(C1([2H])[2H])[C@]2(O)CO [Example 272] | – | < 104 nM | > 25 µM
CC(C)(C)OC(=O)N[C@@H](Cc1ccccc1)C(=O)N1C2CCC1CC(S(=O)(=O)c1cc(C(=O)Nc3cc(F)c(F)c(F)c3)ccc1Cl)C2 (stereo partly shown) [Example 152] | – | > 200 nM | > 25 µM
C[C@@H](O)[C@@H](O)[C@]1(O)C2CCC1C[C@@H](S(=O)(=O)c1cc(C(=O)Nc3ccc(F)c(F)c3)ccc1Cl)C2 (single isomer, unassigned) [Example 180] | – | < 104 nM | > 25 µM
CC=CCNC(=O)C[C@]1(O)C2CCC1C[C@@H](S(=O)(=O)c1cc(C(=O)Nc3cc(F)c(F)c(F)c3)ccc1Cl)C2 [Example 53] | > 6.25 µM | < 104 nM | –
